Results from PMC11858854, “In Vitro and In Vivo Assessment of Pharmacokinetic Profile of Peramivir in the Context of Inhalation Therapy” (Pharmaceuticals, 2025).

Experiments:
A549 cells = experiment: Uptake study by A549 cells; format: in vitro ADME, human; conditions: 10 µM, 37 °C or 4 °C
Protocol: A549 cells were cultured in DMEM medium supplemented with 10% FBS and PS (100 U/mL) at 37 °C in a humidified 5% CO2 incubator. Cells were seeded on 24-well plates at a density of 3 × 10^4 cells/well. For the uptake assay, the DMEM media were removed, and the cells were washed with pre-warmed Hank’s buffer three times (1 mL/well). The third washing buffer was retained in the wells, and the plate was placed in an incubator at 37 °C or 4 °C for 30 min prior to the initiation of the uptake experiment. Following the removal of the washing buffer, 200 μL of pre-warmed test drug solution (Hank’s buffer containing the 10 µM peramivir) was added into each well, and the plates were incubated at 37 °C or 4 °C for 2, 5, and 15 min. Then the incubation solution was removed, and the cells were washed with ice-cold transportation buffer three times (1 mL/well). A total of 0.2 mL pure water was added to each well to lyse the cells by repeated freezing and thawing (−196 °C~37 °C, three times). The cell lysate was collected and stored at −40 °C for LC-MS/MS analysis and protein measurement.

[1] = Tissue distribution study in rats; format: in vivo; conditions: rat
Protocol: Tissue distribution characteristics were studied following different deliveries of i.v. 3 mg/kg, i.t. 0.3 mg/kg, and i.t. 3 mg/kg in rats. The rats were euthanized at 5 min, 30 min, 1 h, 4 h, 12 h, and 24 h after administration. Blood was collected by puncture of the fundus venous plexus, and bronchoalveolar lavage was performed to obtain bronchoalveolar lavage (BAL) fluid samples, and then the main tissues were obtained by dissection. All the tissues were thoroughly rinsed in ice physiological saline, then weighed and stored at −40 °C for analysis.
Whole blood was placed in EP tubes containing sodium heparin, and plasma was extracted by centrifugation at 4 °C, 5000× g for 10 min. […] Drug concentrations in the samples were determined using the LC-MS/MS method and drug concentrations in the BAL were converted to drug concentrations in epithelial lining fluid (ELF) using the urea nitrogen correction method.
The apparent volume of ELF in BAL fluid was determined by the urea dilution method described by Rennard. The estimated concentration of drugs in ELF was calculated as follows:CELF = CBAL × (UPlasma/UBAL)(1) where CBAL is the measured drug concentration in BAL fluid and UPlasma and UBAL are the measured concentrations of urea nitrogen in plasma and BAL fluid, respectively.
The Kp of each tissue was calculated as follows:Kp = AUC(0–t, tissue)/AUC(0–t, plasma)(2)

[2] = parameters: method as in PMID 15196586; conditions: cited from earlier work
[3] = Pharmacokinetics study in rats (i.v. and tracheal nebulization, plasma); format: in vivo, rat; conditions: for AUC(0–t) / AUC(0–t)/D / AUC(0–∞) / Cmax or C0 / Cmax/D / MRT(0–t) / MRT(0–∞) / T1/2 / Tmax / Cl / Vss / Vz: rat plasma, Mean ± SD, n = 6
Protocol: Pharmacokinetic studies were performed on rats to examine the effects of two distinct routes of administration: intravenous (i.v.) and tracheal nebulization (i.t.). The two administration routes were established to provide different doses, with six SD rats randomly assigned and weighed for each route.
The intravenous group consisted of rats that were randomly allocated into two subgroups, receiving dosages of 3 mg/kg and 6 mg/kg, respectively. The i.t. group consisted of rats that were randomly allocated into four groups receiving doses of 0.3 mg/kg, 1 mg/kg, 3 mg/kg, and 6 mg/kg. Prior to and at 0.033, 0.083, 0.25, 0.5, 1, 2, 4, 6, 8, 12, and 24 h post-administration, about 200 μL of blood was obtained via jugular vein catheterization and transferred to an EP tube containing heparin. Following centrifugation for 10 min at 5000× g, the plasma was isolated and preserved in a refrigerator at −40 °C until analysis.
Noncompartmental PK parameter estimates were determined from individual concentration-time data, using Phoenix WinNonlin, version 8.1 (Certara USA, Princeton, NJ, USA). And the linear relationship between AUC(0–t) and the corresponding dose was analyzed. t tests were performed on pharmacokinetic parameters under different dosing regimens to analyse the differences in drug exposure in rats.

SMILES: CCC(CC)[C@H](NC(C)=O)[C@@H]1[C@H](O)[C@@H](C(=O)O)C[C@H]1N=C(N)N [Peramivir]
- uptake rate in A549 cell model (A549 cells): low
- exposure in alveolar epithelial lining fluid after inhalation relative to equivalent i.v. dose [1]: exceeding 370 times
- tissue–plasma partition coefficient, Kp ([1]; intravenous, all tissues except renal and alveolar epithelial lining): < 1
- BDDCS category ([2]; high solubility/low metabolism): BDDCS-III
- BCS category ([2]; high solubility/low permeability): BCS-III
- AUC(0–t) ([3]; i.t. 0.3 mg/kg): 405.17 ± 56.59 ng·h/mL
- AUC(0–t)/D ([3]; i.t. 0.3 mg/kg): 1350.57 ± 188.64 kg·ng·h/mL/mg
- AUC(0–∞) ([3]; i.t. 0.3 mg/kg): 407.71 ± 56.59 ng·h/mL
- Cmax or C0 ([3]; i.t. 0.3 mg/kg): 204.67 ± 80.82 ng/mL
- Cmax/D ([3]; i.t. 0.3 mg/kg): 682.22 ± 269.38 kg·ng/mL/mg
- MRT(0–t) ([3]; i.t. 0.3 mg/kg): 1.62 ± 0.31 h
- MRT(0–∞) ([3]; i.t. 0.3 mg/kg): 1.67 ± 0.33 h
- T1/2 ([3]; i.t. 0.3 mg/kg): 1.07 ± 0.22 h
- Tmax ([3]; i.t. 0.3 mg/kg): 0.37 ± 0.38 h
- AUC(0–t) ([3]; i.t. 1 mg/kg): 1279.25 ± 93.59 ng·h/mL
- AUC(0–t)/D ([3]; i.t. 1 mg/kg): 1279.25 ± 93.59 kg·ng·h/mL/mg
- AUC(0–∞) ([3]; i.t. 1 mg/kg): 1291.03 ± 92.89 ng·h/mL
- Cmax or C0 ([3]; i.t. 1 mg/kg): 544.17 ± 215.23 ng/mL
- Cmax/D ([3]; i.t. 1 mg/kg): 544.17 ± 215.23 kg·ng/mL/mg
- MRT(0–t) ([3]; i.t. 1 mg/kg): 2.08 ± 0.69 h
- MRT(0–∞) ([3]; i.t. 1 mg/kg): 2.32 ± 1.07 h
- T1/2 ([3]; i.t. 1 mg/kg): 4.10 ± 1.69 h
- Tmax ([3]; i.t. 1 mg/kg): 0.67 ± 0.40 h
- AUC(0–t) ([3]; i.t. 3 mg/kg): 4364.35 ± 583.02 ng·h/mL
- AUC(0–t)/D ([3]; i.t. 3 mg/kg): 1454.78 ± 194.34 kg·ng·h/mL/mg
- AUC(0–∞) ([3]; i.t. 3 mg/kg): 4673.22 ± 567.78 ng·h/mL
- Cmax or C0 ([3]; i.t. 3 mg/kg): 2303.33 ± 1523.96 ng/mL
- Cmax/D ([3]; i.t. 3 mg/kg): 767.78 ± 507.99 kg·ng/mL/mg
- MRT(0–t) ([3]; i.t. 3 mg/kg): 3.15 ± 0.66 h
- MRT(0–∞) ([3]; i.t. 3 mg/kg): 8.26 ± 4.04 h
- T1/2 ([3]; i.t. 3 mg/kg): 27.20 ± 9.67 h
- Tmax ([3]; i.t. 3 mg/kg): 0.29 ± 0.36 h
- AUC(0–t) ([3]; i.t. 6 mg/kg): 8479.33 ± 883.87 ng·h/mL
- AUC(0–t)/D ([3]; i.t. 6 mg/kg): 1413.22 ± 147.31 kg·ng·h/mL/mg
- AUC(0–∞) ([3]; i.t. 6 mg/kg): 8852.22 ± 897.97 ng·h/mL
- Cmax or C0 ([3]; i.t. 6 mg/kg): 3866.00 ± 2454.21 ng/mL
- Cmax/D ([3]; i.t. 6 mg/kg): 644.33 ± 409.04 kg·ng/mL/mg
- MRT(0–t) ([3]; i.t. 6 mg/kg): 3.41 ± 1.08 h
- MRT(0–∞) ([3]; i.t. 6 mg/kg): 5.70 ± 1.84 h
- T1/2 ([3]; i.t. 6 mg/kg): 17.73 ± 2.85 h
- Tmax ([3]; i.t. 6 mg/kg): 0.29 ± 0.39 h
- AUC(0–t) ([3]; i.v. 3 mg/kg): 3765.02 ± 247.43 ng·h/mL
- AUC(0–t)/D ([3]; i.v. 3 mg/kg): 1255.00 ± 82.48 kg·ng·h/mL/mg
- AUC(0–∞) ([3]; i.v. 3 mg/kg): 3773.97 ± 245.49 ng·h/mL
- Cl ([3]; i.v. 3 mg/kg): 13.296 ± 0.8863 mL/min/kg
- Cmax or C0 ([3]; i.v. 3 mg/kg): 12,705.55 ± 1264.79 ng/mL
- MRT(0–t) ([3]; i.v. 3 mg/kg): 0.59 ± 0.06 h
- MRT(0–∞) ([3]; i.v. 3 mg/kg): 0.62 ± 0.06 h
- T1/2 ([3]; i.v. 3 mg/kg): 2.11 ± 1.25 h
- Vss ([3]; i.v. 3 mg/kg): 0.49811 ± 0.0581 L/kg
- Vz ([3]; i.v. 3 mg/kg): 2.46265 ± 1.56916 L/kg
- AUC(0–t) ([3]; i.v. 6 mg/kg): 6048.04 ± 635.88 ng·h/mL
- AUC(0–t)/D ([3]; i.v. 6 mg/kg): 1008.01 ± 105.98 kg·ng·h/mL/mg
- AUC(0–∞) ([3]; i.v. 6 mg/kg): 6060.92 ± 637.85 ng·h/mL
- Cl ([3]; i.v. 6 mg/kg): 16.654 ± 1.7818 mL/min/kg
- Cmax or C0 ([3]; i.v. 6 mg/kg): 22,731.79 ± 5543.47 ng/mL
- MRT(0–t) ([3]; i.v. 6 mg/kg): 0.47 ± 0.06 h
- MRT(0–∞) ([3]; i.v. 6 mg/kg): 0.51 ± 0.07 h
- T1/2 ([3]; i.v. 6 mg/kg): 3.07 ± 0.61 h
- Vss ([3]; i.v. 6 mg/kg): 0.47267 ± 0.06358 L/kg
- Vz ([3]; i.v. 6 mg/kg): 4.43299 ± 1.0131 L/kg
- increase of mean residence time (MRT), inhaled vs intravenous ([3]; rat, equivalent doses): nearly tenfold
- time of peak plasma concentration ([3]; rat, following inhalation): approximately 30 min
- bioavailability ([3]; rat, inhalation vs intravenous): exceeding 100%
- dose linearity of AUC and Cmax ([3]; rat, intratracheal, dose range 0.3 mg/kg to 6 mg/kg): linear pharmacokinetics
